Experimental data from patent publication US7354593B2, “Coccidial vaccine and methods of making and using same” (Merial Limited, priority 2002, dated 2008).
Like-named read-outs stand apart in the source and are kept apart here.

Tests used:
[1] = system: Salmonella; assay: Killing of Salmonella by oocyst processing agents
[2] = system: Mycoplasma; assay: Killing of Mycoplasma by oocyst processing agent
[3] = Floor pen phase: live weight, feed conversion and total mortality during 7-week grow-out; format: in vivo, Gallus domesticus (chicken)
Text: The timeline was as follows. On Day 0, birds were weighed by pen. The birds in Groups 1 and 2 were vaccinated as described in Table 9, with 1300 birds per vaccine regime, divided between 2 pens, one in each half of the house. The birds in Group 3 were started on Salinomycin, 60 g/ton, divided as described for Groups 1 and 2. The pens were stocked. Extra hatchmates were retained in wire cages as unvaccinated chicks.
On Day 21, the feed from starter to grower was changed for all birds. Salinomycin was continued in Group 3.
On Day 42, all groups were changed to unmedicated finisher feed and the feed back was weighed.
On Day 49, all birds and feed were weighed and the trial was terminated.
Vaccination/Medication. Three treatments of birds identified as Groups 1-3 in Table 9, were replicated in half houses, three pens per house, 650 birds per pen, for a total of 1300 birds per treatment. Birds in […] were vaccinated as described in Table 9. An additional treatment group (4) was maintained separately in clean cages as unvaccinated, untreated controls, for use in the challenge test only.
Treatment Groups 1, 2, and 4 were given non-medicated feed. Treatment Group 3 was given Salinomycin (60 g/ton) beginning on Day 1 through Day 42. The birds in Group 3 to be challenged were given non-medicated feed after the move to the challenge cages. Starter feed was given until 21 days, grower until 42 days and finisher until 49 days. The feed issued was recorded, and any remaining unconsumed feed was weighed back at the time of feed changes and at termination.
(§1) Observations. Birds were weighed by pen at 0 and 28 days and by pen and sex at 49 days. Dead birds were collected twice daily and necropsy performed to determine cause of death.
(§2) Criteria for Measurement. The primary variables for the floor pen phase were live weights at 28 and 49 days and feed conversion at 49 days. For the challenge phase, primary variables were weight gain six days after challenge, and lesion scores of the upper, mid and cecal gut sections, also at six days after challenge.

[4] = system: Clostridium sordelli; format: in vivo, Gallus domesticus (chicken); conditions: necrotic enteritis mortality
Protocol: as §1
Concurrent Medications and Management of Adverse Events. The Coccivac vaccinated birds became sick 14 days into the trial. […] The responsible agent was identified as Clostridium sordelli. All birds in the trial were administered Penicillin G to decrease contamination, and the affects thereof, between pens and to eliminate any difference in treatments among the groups that could skew the coccidiosis results.
It is important to note that the Coccivac vaccinated birds became infected with Clostridium sordelli. Clostridial disease has been linked to infection with coccidiosis in the field. Even though the infection did spread to the other treatments, the Coccivac vaccinated birds were the most affected showing 11.77% mortality.

[5] = system: E. acervulina, E. mitis, E. tenella, E. maxima; assay: Challenge phase: polyvalent oral challenge with virulent Eimeria, lesion scores and weight gain six days after challenge; format: in vivo, Gallus domesticus (chicken)
Text: Six days following challenge, the vaccinates and controls from each of the Groups in Table 4 were sacrificed, weighed, and the intestines and ceca were examined and scored for lesions. Scoring was in accordance with the Johnson and Reid cocciodial scoring system, as described in Experimental Parisitology, Vol. 28, p 30-36, 1970, the disclosure of which is incorporated by reference in its entirety, as shown in Table 5.
On Day 28, the birds to be challenged were moved to wire cages. Salinomycin was discontinued in Group 3 birds to be challenged. All birds and feed we weighed. Fresh fecal samples were collected from the litter from each group in the large pens, 20 samples per pen. Oocysts by quantified by species.
On Day 29, birds in the cages were challenged using the number of oocysts described in Table 7.
On Day 35, the challenge birds were terminated, the lesions were scored, and weight gains were taken.
Challenge. At Day 28, 3 reps of 10 birds from each pen (total of 60 per treatment) were weighed and moved to the battery cages for challenge with field strains of Eimeria (corresponding to the species used in the vaccine). All birds were given non-medicated feed in the cages. On Day 29, birds of Groups 1-4 were challenged and then terminated on Day 35. Lesion scores and weights were recorded.
as §2

OCl [sodium hypochlorite]
killing of Salmonella [1]: effectively killed | killing of Mycoplasma [2]: effectively killed

[K+].[K+].[O]=[Cr](=[O])([O-])[O][Cr](=[O])(=[O])[O-] [potassium dichromate]
killing of Salmonella [1]: effectively killed

CC[C@@H](C(=O)[C@@H](C)[C@@H](O)[C@H](C)[C@@H]1O[C@@H]([C@@H](CC)C(=O)O)CC[C@@H]1C)[C@H]1O[C@]2(C=C[C@@H](O)[C@]3(CC[C@@](C)([C@H]4CC[C@](O)(CC)[C@H](C)O4)O3)O2)[C@H](C)C[C@@H]1C [SALINOMYCIN, Salinomycin]
% All Mortality ([3]; 28 Day Summary): 3.76% | Feed Conversion ([3]; 28 Day Summary): 1.383 | Avg Live Wt ([3]; 28 Day Summary, commercial birds, floor pens): 1.45 | % Mortality Total ([3]; 49 Day Summary): 5.38% | Avg Live Female Wt ([3]; 49 Day Summary): 2.63 | Avg Live Male Wt ([3]; 49 Day Summary): 3.17 | Avg Total Live Wt ([3]; 49 Day Summary): 2.90 | Feed Conversion ([3]; 49 Day Summary): 1.86 | % Mortality NE ([4]; 28 Day Summary): 0.46% | % Mortality NE ([4]; 49 Day Summary): 0.53% | Initial Wt. ([5]; Day 28, before challenge, 60 birds challenged per treatment): 1435.47ab | Final Wt. ([5]; Day 35, six days after challenge): 1488.97b | % Mortality Due to Coccidiosis ([5]; after challenge): 0% | Ceca Lesion Score ([5]; ceca, six days after challenge, Johnson and Reid score 0 to +4): 3.25a | Middle Lesion Score ([5]; mid gut, six days after challenge, Johnson and Reid score 0 to +4): 2.90b | 6 Day Wt. Gain ([5]; six days after challenge): 53.50 days | ATLS (average total lesion score) ([5]; six days after challenge): 2.88a | TLS (total lesion score) ([5]; six days after challenge): 8.65a | Upper Lesion Score ([5]; upper intestine, six days after challenge, Johnson and Reid score 0 to +4): 2.50a
